Experimental data from patent publication US20240207238A1, “INHIBITORS OF PROTEIN TYROSINE PHOSPHATASE, COMPOSITIONS, AND METHODS OF USE” (BRISTOL-MYERS SQUIBB COMPANY, priority 2022, published 2024).
pEC50, pIC50: −log10 of the molar value. Read-outs that look alike come from different tables or passages of the source.

Key:
PTPN2 [1] = biological target: T1, PTPN2 (Homo sapiens (Human), UniProt P17706); test: PTPN2 biochemical assay, high DTT (PhosphoSens); conditions: high DTT concentration assay; read-out: PTPN2 BChem HIGHDTT IC50
Protocol: A PhosphoSens® kinase assay was performed as described by the vendor (AssayQuant Technologies, Marlborough, MA). Briefly, 1000× solutions of compounds were prepared in DMSO via serial dilution of the 10 mM DMSO stocks using 3-fold intervals in a 384-well reagent plate. 50 nL of the compound dilution series was then added to the corresponding wells of a 384-well assay plate. […] Finally, […] of 5×PTPN2 enzyme stock was added to each well of the assay plate for a final enzyme concentration of 150 pM. Reaction progress curves were collected by sampling fluorescence intensity at the excitation wavelength 360 nm (Quex360) and emission wavelength 480 nm (λem480) every 71 seconds for one hour using a Synergy H4 plate reader (BioTek Instruments/Agilent Technologies, Winooski, VT) at room temperature.
(§1) For IC50 data, High DDT concentration and/or DiFMUP substrate assays were used; a skilled artisan may use either assay.

PTPN2 [2] = biological target: T1, PTPN2; test: Phosphatase activity assay using DiFMUP as substrate; format: biochemical; conditions: 0.15 nM PTPN2, read-out: PTPN2 BChem DIFMUP IC50
Protocol: The PTPN2 biochemical assay was performed as follows, a 5× stock solution of human PTPN2 (SRP5075, MilliporeSigma, Burlington, MA) and a 1.25× stock solution of DiFMUP (D6567, ThermoFisher Scientific, Waltham, MA), were prepared in 1× reaction buffer consisting of 50 mM HEPES, pH 7.4, 1 mM EDTA, 150 mM NaCl, 0.2 mg/mL BSA, 100 U/mL catalase and 10 mM DTT. […] of the DiFMUP substrate solution, for a final concentration of […] DiFMUP substrate, was added to a Corning 3574 384-well, white, non-binding surface microtiter plate containing […] of serially diluted test compounds prepared in DMSO. The reactions were started with the addition of […] of the enzyme solution, for a final PTPN2 concentration of 0.15 nM, and monitored every 105 seconds for 60 minutes at MEX 360/2EM 460 in a BioTek Synergy HTX plate reader (Agilent Technologies, Santa Clara, CA) at room temperature. The initial linear portions of the progress curves were fit according to a linear equation to yield the slopes and converted to % inhibition based on a value of 100% activity for the no inhibitor treated control. IC50 values of each compound were obtained by fitting the % inhibition-compound concentration curves using Dotmatics software (Dotmatics, Bishops Stortford, Hertfordshire, England).
as §1

[3] = test system: phosphorylated STAT1 in B16-F10 cells; test: Phospho-STAT1 (Tyr701) HTRF assay in B16-F10 cells; format: cell-based; conditions: 100 ng/mL mouse IFN-gamma, 1 hour, read-out: pSTAT1 HTRF B16 EC50
Protocol: B16-F10 cells (ATCC, Manassas, VA, #CRL-6475) were cultured in DMEM growth medium (ThermoFisher Scientific, Waltham, MA, #11995-040) supplemented with 10% heat-inactivated FBS (ThermoFisher Scientific, #16140-071) and 1% pen/strep (ThermoFisher Scientific, #15140-122). The cells were seeded into a white opaque 384-well tissue culture treated microplate (PerkinElmer, Waltham, MA, #6007688) at a density of 10,000 cells/well in 20 uL total volume and incubated overnight at 37 C and 5% CO2. 30 nL of compounds dissolved in DMSO were then transferred from a source plate into target wells with the Echo650 acoustic liquid handler (Beckman Coulter, Indianapolis, IN). Negative control wells received 30 nL of DMSO only (0.15% final concentration). Plates were returned to the incubator for 1 hour and then cells were treated with either 5 uL of growth medium or 5 uL of growth medium containing 500 ng/ml of recombinant mouse IFN-gamma protein (R&D Systems, Minneapolis, MN, #485-MI/CF, 100 ng/mL final concentration) using the Assist automated pipetting platform (INTEGRA Biosciences, Hudson, NH). Plates were incubated at 37 C for 1 hour and assayed for phosphorylated STAT1 protein levels with the phospho-STAT1 (Tyr701) HTRF kit (Cisbio, Bedford, MA, #63ADK026PEH) according to the manufacturer's instructions.

B16-F10 cells = test: Cell proliferation assay (CellTiter-Glo) in B16-F10 cells with IFN-gamma; format: cell-based; conditions: 10 ng/ml mouse IFN-gamma, read-out: Prolif. 5d B16 GI50

T1 sequence (P17706 whole entry): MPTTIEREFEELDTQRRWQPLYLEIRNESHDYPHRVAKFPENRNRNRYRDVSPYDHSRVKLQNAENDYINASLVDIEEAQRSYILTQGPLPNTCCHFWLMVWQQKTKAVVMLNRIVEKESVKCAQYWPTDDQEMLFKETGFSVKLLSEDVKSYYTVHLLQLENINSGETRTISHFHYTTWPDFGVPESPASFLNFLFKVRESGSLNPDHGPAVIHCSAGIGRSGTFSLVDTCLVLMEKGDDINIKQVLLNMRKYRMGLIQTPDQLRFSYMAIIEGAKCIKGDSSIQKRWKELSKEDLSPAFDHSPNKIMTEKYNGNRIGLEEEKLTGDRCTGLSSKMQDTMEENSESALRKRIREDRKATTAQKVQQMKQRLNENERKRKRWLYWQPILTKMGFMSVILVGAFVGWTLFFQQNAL

`O=C1CN(c2c(F)cc(CNc3cc(C4CC4)ccn3)c3cn[nH]c23)S(=O)(=O)N1` [Example 4, 5-[4-[[(4-cyclopropyl-2-pyridyl)amino]methyl]-6-fluoro-1H-indazol-7-yl]-1,1-dioxo-1,2,5-thiadiazolidin-3-one] was tested, and the pIC50 (PTPN2 [1]) was 9.00, the pIC50 (PTPN2 [2]) was 8.70 and the pEC50 [3] was 5.51. The GI50 (B16-F10 cells; 120 h) was 2690 nM.
Compound “5-[6-fluoro-4-[[(6-methoxy-2-pyridyl)amino]methyl]-1H-indazol-7-yl]-1,1-dioxo-1,2,5-thiadiazolidin-3-one [Example 1]” has a pIC50 (PTPN2 [1]) of 8.30, a pIC50 (PTPN2 [2]) of 8.70 and a pEC50 [3] of 6.54. For the same compound, the GI50 (B16-F10 cells) was 160 nM.
For “5-(6-fluoro-4-(((4-methoxy-5-methylpyridin-2-yl)amino)methyl)-1H-indazol-7-yl)-1,2,5-thiadiazolidin-3-one 1,1-dioxide [Example 7]”, the pIC50 (PTPN2 [2]) was 6.70, the pEC50 [3] was < 4.82 and the GI50 (B16-F10 cells) was > 15000 nM.
Work on “5-[6-fluoro-4-[[(3-methyl-2-pyridyl) amino] methyl]-1H-indazol-7-yl]-1,1-dioxo-1,2,5-thiadiazolidin-3-one [Example 10]” yielded a pIC50 (PTPN2 [2]) of 7.80, a pEC50 [3] of 4.85 and a GI50 (B16-F10 cells) of 3970 nM.
`Cc1cc(NCc2cc(F)c(N3CC(=O)NS3(=O)=O)c3[nH]ncc23)ncc1C#N` [Example 8, 6-[[6-fluoro-7-(1,1,4-trioxo-1,2,5-thiadiazolidin-2-yl)-1H-indazol-4-yl]methylamino]-4-methyl-pyridine-3-carbonitrile] was tested, and the pIC50 (PTPN2 [2]) was 7.17, the pEC50 [3] was 5.04 and the GI50 (B16-F10 cells; 120 h) was > 15000 nM.
Compound “5-[6-fluoro-4-[[(4-methoxy-2-pyridyl)amino]methyl]-1H-indazol-7-yl]-1,1-dioxo-1,2,5-thiadiazolidin-3-one [Example 3]” has a pIC50 (PTPN2 [1]) of 8.22, a pIC50 (PTPN2 [2]) of 8.05 and a pEC50 [3] of 6.12. It also gave a GI50 (B16-F10 cells) of 350 nM.
Compound “5-(6-fluoro-4-(((5-methoxypyridin-2-yl)amino)methyl)-1H-indazol-7-yl)-1,2,5-thiadiazolidin-3-one 1,1-dioxide [Example 2]” has a pIC50 (PTPN2 [1]) of 7.38, a pIC50 (PTPN2 [2]) of 7.62 and a pEC50 [3] of 5.73. The GI50 (B16-F10 cells) was 880 nM.
Compound “5-[6-fluoro-4-[[(4-methyl-2-pyridyl)amino]methyl]-1H-indazol-7-yl]-1,1-dioxo-1,2,5-thiadiazolidin-3-one [Example 5]” has a pIC50 (PTPN2 [1]) of 8.30, a pIC50 (PTPN2 [2]) of 8.10 and a pEC50 [3] of 6.36. The GI50 (B16-F10 cells) was 166 nM.
Compound “5-(4-(((4,6-dimethylpyridin-2-yl)amino)methyl)-6-fluoro-1H-indazol-7-yl)-1,2,5-thiadiazolidin-3-one 1,1-dioxide [Example 6]” has a pIC50 (PTPN2 [2]) of 7.08, a pEC50 [3] of 5.43 and a GI50 (B16-F10 cells) of 3260 nM.
With `COc1cc(C)nc(NCc2cc(F)c(N3CC(=O)NS3(=O)=O)c3[nH]ncc23)c1` [Example 9, 5-[6-fluoro-4-[[(4-methoxy-6-methyl-2-pyridyl)amino]methyl]-1H-indazol-7-yl]-1,1-dioxo-1,2,5-thiadiazolidin-3-one] the pIC50 (PTPN2 [2]) was 9.00, the pEC50 [3] was 7.04 and the GI50 (B16-F10 cells; 120 h) was 20 nM.
